Measured values from patent US12662491B2 (Redona Therapeutics, Inc., priority 2020, dated 2026).
Read-outs that look alike come from different tables or passages of the source.

Target: T1, Zcchc11 enzyme (Homo sapiens, UniProt Q5TAX3)
T1 construct: made in house; host or cells: HEK293 cells (Zcchc11); E. coli Rosetta II (LIN28A)
T1 sequence (Q5TAX3 212-1420): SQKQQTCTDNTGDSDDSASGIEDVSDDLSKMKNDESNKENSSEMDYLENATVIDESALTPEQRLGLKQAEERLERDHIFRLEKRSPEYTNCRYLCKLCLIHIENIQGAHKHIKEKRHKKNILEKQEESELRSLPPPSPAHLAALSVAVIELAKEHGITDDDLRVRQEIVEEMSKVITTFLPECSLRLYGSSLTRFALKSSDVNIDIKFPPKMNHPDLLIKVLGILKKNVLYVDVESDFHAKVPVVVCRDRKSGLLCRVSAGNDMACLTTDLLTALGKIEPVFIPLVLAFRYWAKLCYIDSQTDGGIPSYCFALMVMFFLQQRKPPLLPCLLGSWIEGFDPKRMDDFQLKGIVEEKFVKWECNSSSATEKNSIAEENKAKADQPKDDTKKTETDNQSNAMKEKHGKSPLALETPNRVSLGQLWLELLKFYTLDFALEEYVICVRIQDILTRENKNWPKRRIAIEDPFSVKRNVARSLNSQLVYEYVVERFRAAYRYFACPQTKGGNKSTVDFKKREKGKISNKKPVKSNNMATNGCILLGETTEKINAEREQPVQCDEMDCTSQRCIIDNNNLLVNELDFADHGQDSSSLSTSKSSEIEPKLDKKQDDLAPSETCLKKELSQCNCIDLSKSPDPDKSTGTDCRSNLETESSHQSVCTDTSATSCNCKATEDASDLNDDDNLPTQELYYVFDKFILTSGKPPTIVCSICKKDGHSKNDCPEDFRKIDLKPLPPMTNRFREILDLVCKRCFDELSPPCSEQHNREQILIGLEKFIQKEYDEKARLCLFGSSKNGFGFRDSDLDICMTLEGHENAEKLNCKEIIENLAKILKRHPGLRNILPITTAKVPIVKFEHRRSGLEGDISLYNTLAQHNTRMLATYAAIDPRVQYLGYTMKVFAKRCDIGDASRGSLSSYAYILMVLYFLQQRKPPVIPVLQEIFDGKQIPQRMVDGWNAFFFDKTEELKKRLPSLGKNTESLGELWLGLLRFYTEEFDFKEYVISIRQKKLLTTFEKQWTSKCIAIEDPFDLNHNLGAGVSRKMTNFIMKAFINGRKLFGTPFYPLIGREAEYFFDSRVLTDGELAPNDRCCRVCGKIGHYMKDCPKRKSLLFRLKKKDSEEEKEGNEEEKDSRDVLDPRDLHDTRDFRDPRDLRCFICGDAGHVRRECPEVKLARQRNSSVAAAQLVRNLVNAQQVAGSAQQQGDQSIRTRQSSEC
Experiment: TUTase assay (Zcchc11 assay, Lin28a-dependent polyuridylation of pre-let-7)
Format: biochemical
Settings: read-out: Potency Lin28a-dep Z11 IC50
Outline: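 Potency is measured as inhibition of LIN28A-driven U-tail addition to 2 nM pre-let-7 by 0.2 nM HEK293-derived Zcchc11 fragment with 5 uM UTP at room temperature. Tail growth appears as fluorescein quenching by an annealing rhodamine-A20 probe.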

[1] = Lin28a-dependent Zcchc11 (Z11) TUTase activity
[2] = Lin28a-dependent Zcchc11 (Z11) TUTase assay

IC50 [1] [nM]	IC50 [2] [nM]	Structure (SMILES)
≤ 1000	–	Cc1cccnc1OC[C@H]1CCCN1c1nc2c(cc1F)c(=O)c(C(=O)O)cn2-c1ccc(O)cc1 [Compound 133, (R)-6-fluoro-1-(4-hydroxy-phenyl)-7-(2-(((3-methylpyridin-2-yl)oxy)methyl)pyrrolidin-1-yl)-4-oxo-1,4-dihydro-1,8-naphthyridine-3-carboxylic acid]
–	1000 to 10000	O=C(O)c1cn(-c2nncs2)c2cc(N3CCC[C@@H]3COc3ccccn3)c(F)cc2c1=O [Example 433, (R)-6-fluoro-4-oxo-7-(2-((pyridin-2-yloxy)methyl)pyrrolidin-1-yl)-1-(1,3,4-thiadiazol-2-yl)-1,4-dihydroquinoline-3-carboxylic acid]
–	1000 to 10000	Cc1cc(-n2cc(C(=O)O)c(=O)c3cc(F)c(N4CCC[C@@H]4COc4ccccn4)cc32)ccc1O [Example 395, (R)-6-fluoro-1-(4-hydroxy-3-methylphenyl)-4-oxo-7-(2-((pyridin-2-yloxy)methyl)pyrrolidin-1-yl)-1,4-dihydroquinoline-3-carboxylic acid]
–	1000 to 10000	O=C(O)c1cn(C2CC2)c2c(F)c(N3CCC[C@@H]3COc3cccnc3)c(F)cc2c1=O [Example 357, (R)-1-cyclopropyl-6,8-difluoro-4-oxo-7-(2-((pyridin-3-yloxy)methyl)pyrrolidin-1-yl)-1,4-dihydro-quinoline-3-carboxylic acid]

Second part, the compound before the results:

Structure (SMILES)	IC50 [1] [nM]	IC50 [2] [nM]
CC(=O)Nc1ccc(-n2cc(C(=O)O)c(=O)c3cc(F)c(N4CCC[C@@H]4COc4ccccn4)cc32)cc1 [Compound 159, (R)-1-(4-acetamido-phenyl)-6-fluoro-4-oxo-7-(2-((pyridin-2-yloxy)methyl)pyrrolidin-1-yl)-1,4-dihydro-quinoline-3-carboxylic acid]	≤ 1000	–
Cc1nc2cc(-n3cc(C(=O)O)c(=O)c4cc(Cl)c(N5CCC[C@@H]5COc5ncccc5Cl)cc43)ncc2[nH]1 [Example 616, (R)-6-chloro-7-(2-(((3-chloropyridin-2-yl)oxy)methyl)pyrrolidin-1-yl)-1-(2-methyl-3H-imidazo[4,5-c]pyridin-6-yl)-4-oxo-1,4-dihydroquinoline-3-carboxylic acid]	–	≤ 1000
CN(C)C1CN(c2ccc(-n3cc(C(=O)O)c(=O)c4cc(C#N)c(N5C[C@@H]6C[C@@H]6C5COc5ncccc5F)cc43)cn2)C1 (stereo partly drawn) [Compound 293, 6-cyano-1-(6-(3-(dimethyl-amino)azetidin-1-yl)pyridin-3-yl)-7-((1S,5R)-2-(((3-fluoropyridin-2-yl)oxy)methyl)-3-azabicyclo [3.1.0]hexan-3-yl)-4-oxo-1,4-dihydro-quinoline-3-carboxylic acid]	≤ 1000	–
COc1ccc(Cl)c(OC[C@H]2C[C@@H]3C[C@@H]3N2c2cc3c(cc2Cl)c(=O)c(C(=O)O)cn3-c2ccnc(N)c2)n1 (racemic) [Compound 231, Rac-1-(2-aminopyridin-4-yl)-6-chloro-7-((1R,3S,5R)-3-(((3-chloro-6-methoxy-pyridin-2-yl)oxy)methyl)-2-azabicyclo [3.1.0]hexan-2-yl)-4-oxo-1,4-dihydro-quinoline-3-carboxylic acid]	≤ 1000	–
Cc1ccccc1OC[C@H]1CCCN1c1cc2c(cc1F)c(=O)c(C(=O)O)cn2-c1ccc(O)cc1 [Compound 105, (R)-6-fluoro-1-(4-hydroxy-phenyl)-4-oxo-7-(2-((o-tolyloxy)methyl)pyrrolidin-1-yl)-1,4-dihydro-quinoline-3-carboxylic acid]	1000 to 10000	–
CN(C)C1CN(c2ccc(-n3cc(C(=O)O)c(=O)c4cc(Cl)c(N5C6CCC5(COc5ncccc5Cl)CC6)cc43)cn2)C1 [Compound 282, 6-chloro-7-(1-(((3-chloropyridin-2-yl)oxy)methyl)-7-azabicyclo [2.2.1]heptan-7-yl)-1-(6-(3-(dimethyl-amino)azetidin-1-yl)pyridin-3-yl)-4-oxo-1,4-dihydro-quinoline-3-carboxylic acid]	≤ 1000	–
